In series [1] the target is T1, Rev-Erb alpha (Homo sapiens, UniProt P20393).
T1 sequence (P20393 284-614 limits assumed): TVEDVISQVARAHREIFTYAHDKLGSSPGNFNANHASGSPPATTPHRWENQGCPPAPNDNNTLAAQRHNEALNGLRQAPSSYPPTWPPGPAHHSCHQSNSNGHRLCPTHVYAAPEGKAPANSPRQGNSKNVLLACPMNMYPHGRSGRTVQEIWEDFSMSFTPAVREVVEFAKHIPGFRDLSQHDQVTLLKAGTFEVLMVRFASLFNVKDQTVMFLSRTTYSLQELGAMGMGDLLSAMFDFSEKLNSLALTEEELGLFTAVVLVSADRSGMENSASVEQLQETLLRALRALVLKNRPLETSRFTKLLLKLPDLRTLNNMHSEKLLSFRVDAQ
The series is described as follows: M2H (mammalian two-hybrid) cellular activation assay of Rev-Erb alpha. The class given is cell-based. The note with it: M2H assay, HEK293 cells, Gal4-Rev-Erb alpha / VP16-NCoR, luciferase reporter. A digest of the protocol: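 Six-point dose-response, 18 h, 37 °C, serum-free, in HEK293 cells carrying a Gal4-RE luciferase reporter with Gal4-Rev-Erb alpha or beta plus VP16-NCoR (corepressor interaction readout). EC50 and TOP activation (%) derived from luminescence across four experiments.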

The target of series [2] is T1, Rev-Erb alpha. The series is described as follows: TR-FRET (HTRF) assay of Rev-Erb alpha LBD with NCoR peptide ID1. The class given is biochemical. As to conditions: cell-free, Rev-Erb alpha LBD His 20 nM, NCoR ID1 30 nM. Here is the method: Recombinant histidine-tagged Rev-Erb alpha ligand binding domain (LBD; SEQ ID NO: 1) and NCoR peptide ID1 (SEQ ID NO: 2) were tagged with fluorophores. Histidine-tagged Rev-Erb alpha LBD protein was set up in a one to one ratio of 20 nM of His D2 (Cis Bio International 61HSDLB). The NCoR peptide (ID1) was prepared in-house. We used a concentration of 30 nM NCoR and 10 nM Terbium-labeled streptavidin (Cis Bio International 610SATLB).
The buffer for this assay comprised PBS pH 7.2, NaH2P04 at 4 g/L, Na2HP04 at 27 g/L and NaCl at 9 g/l in deionized water. Before using the buffer in the assay, a mixture comprising 1 mM of DTT, 2 mM of CHAPS, 1 mM of EDTA and 0.1% BSA fatty acid free was added to the appropriate amount of buffer. The protein mixture comprising recombinant Rev-Erb alpha LBD His (20 nM), the NCoR ID1 (30 nM) and their respective fluorophores were added to each well of a 384-well plate in a volume 18 μl. The compounds to analyze were diluted in PBS 10% DMSO and was added in a volume of 2 μL in a well. The final mixture volume was 20 μL and the mixture was allowed equilibrate for 2 hours at room temperature. Fluorescence intensity was then counted on the TECAN Genios Pro as a ratio of the fluorescence measured at 665 nm and that measured at 620 nm obtained in the absence of the compound (buffer only) or with the compound. Four experiments were carried out for each compound.
Each compound has been tested at 6 different concentrations to depict a dose-effect enabling the measure of biochemical parameters such as EC50 and TOP activation (%).
The Homogenous Time Resolved Fluorescence (HTRF) assay allows studying the ability of compounds according to the invention to activate Rev-Erb alpha and thus modulate the interaction with its corepressor. The molecular interactions between these bio-molecules are assessed in a cell-free assay by coupling each partner with a fluorescent label and detecting the level of energy transfer. This energy transfer occurs when the distance between the donor (SA Terbium complex) and the acceptor (D2) is small enough.
The ability of compounds according to the invention of activating Rev-Erb alpha was assessed in the described acellular assay. EC50 and TOP activation were measured.

Series [3] concerns the target T2, Rev-Erb beta (Homo sapiens, UniProt Q14995).
T2 sequence (Q14995 369-579 limits assumed): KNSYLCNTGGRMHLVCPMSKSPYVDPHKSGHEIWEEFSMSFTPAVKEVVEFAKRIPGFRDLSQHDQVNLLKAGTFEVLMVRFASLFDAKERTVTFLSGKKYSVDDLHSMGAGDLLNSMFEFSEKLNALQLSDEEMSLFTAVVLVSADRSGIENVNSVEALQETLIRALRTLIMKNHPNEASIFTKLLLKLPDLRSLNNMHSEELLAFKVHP
The series is described as follows: M2H (mammalian two-hybrid) cellular activation assay of Rev-Erb beta. The class given is cell-based. As to conditions: HEK293 cells, Gal4-Rev-Erb beta / VP16-NCoR, luciferase reporter. Here is the method:
In this system, Rev-Erb alpha or Rev-Erb beta is expressed as a fusion to the Gal4 DNA-binding domain and the cofactor NCoR is expressed as a fusion to the activation domain of the Herpes Simplex Virus tegument protein VP16. These fusion proteins were included in plasmids at a concentration of 1 μg/μL. The pBS-SK+ vector was added to the preparation to adjust the DNA quantity to a fixed value for each condition.
The transfection mix (Jet-PEI protocol, Polyplus transfection) comprised: • 3 mL of Jet PEI Mix (180 μL Jet-Pei and NaCl at 150 mM) and • 3 mL of the DNA Mix or of the DNA Mix control (wherein the Gal4-Rev-Erb alpha plasmid was replaced by a pGal4phi plasmid).
DNA Mix comprised 1.2 mL of DNA and 1.8 mL of NaCl at 150 mM with, in a T225 flask: • 90 ng of Gal4-Rev-Erb alpha, or 90 ng of Gal4-Rev-Erb beta, • 4500 ng of VP16-NCoR, • 27000 ng of Gal4-RE and • 13410 ng of pBS-SK+. Cells
HEK293 cells were cultured in DMEM (Invitrogen 41965) comprising 10% FBS, P/S, 1% glutamine, 1% pyruvate (Invitrogen 11360) and 1% amino acids (Invitrogen 11140). Cells were then batch co-transfected with plasmid vectors (described in the table above) using as Jet-PEI as reagent (Polyplus) following the protocol specified below.
The 6 mL-transfection mix was transferred in a T225 flask. HEK293 cells were then added at a concentration of 12 Millions of cells for 54 mL of medium (DMEM comprising 10% FBS and 1% P/S). Cells incubated over-night at 37° C. and under 5% CO2.
This cell-based assay is performed using 384-well Greiner white plates (Reference 781080). After the incubation, cells were rinsed with PBS, trypsinized, centrifuged and resuspended in free-serum DMEM without phenol red (Invitrogen 31053). Cells were counted and adjusted to 0.5 Million per mL and plated at a concentration of 10,000 cells in 20 μL per well. They were incubated a minimum of 4 hours at 37° C. under 5% CO2. Cells were treated with 20 μL of the compound to analyze (concentration of 2× diluted in DMEM without FBS containing a maximum of 1% DMSO) and incubated over-night (18 hours, 37° C. and 5% CO2). Each compound has been tested at 6 different concentrations to depict a dose-effect allowing the measure of biochemical parameters such as EC50 and TOP activation (%).
Cells were incubated 30 minutes with 40 μL/well of Steady Glow (Promega) and luminescence was read with TECAN Genios Pro (100 ms/w). Four experiments were carried out for each compound.
Each compound has been tested at 6 different concentrations to depict a dose-effect allowing the measure of biochemical parameters such as EC50 and TOP activation (%).
The mammalian two-hybrid system (M2H) assay consists herein in studying the ability of compounds according to the invention to activate Rev-Erbalpha in cells and thus modulate the interaction with its corepressor. The interaction of the two proteins is assessed with the help of the Luciferase reporter gene. HEK293 cells were transfected with two gene constructions: Gal4-RE VP16-NCoR and Gal4-Rev-Erbalpha or with Gal4-RE, sVP16-NCoR and Gal4-Rev-Erb beta.
The ability of compounds according to the invention of activating Rev-Erbalpha alpha or Rev-Erb beta was assessed in the described cell-based assay. EC50 and TOP activation (%) were measured.
A general note: Reporter assays use an easily measured gene product as a stand-in for the process of interest.

The conditions of series [4]: high clearance and rapid metabolism; cited from earlier work.
Series [5] relates to diet induced obese mice. The note with it: Solt et al; cited from earlier work.

Each structure is given as a SMILES string.

As a reminder, the EC50 is the concentration at which the effect is half-maximal. Read a high EC50 as lower potency in that assay. A word on the melting point: it is the temperature, or range, at which the solid turns liquid. `FC(F)(F)c1nnc2ccc(Oc3ccccc3Cc3ccccc3)nn12` [Cpd.4-5, 6-(2-benzylphenoxy)-3-(trifluoromethyl)-[1,2,4]triazolo[4,3-b]pyridazine]: the melting point turned out to be 128.8 °C. Moreover, in series [1], the EC50 is 1000 to 6000 nM. Further, the EC50 in series [2] lay within 100 to 1000 nM.
In turn, `COc1ccc(-c2ccccc2)c(Oc2ccc3nnc(Cl)n3n2)c1` [Cpd.4-6, 6-(4-methoxy-biphenyl-2-yloxy)-3-chloro-[1,2,4]triazolo[4,3-b]pyridazine] gave a melting point of 128.1 °C. The compound also had an EC50 in series [1] of 100 to 1000 nM. The same compound returned an EC50 in series [2] of less than 100 nM.
`Fc1ccc(-c2ccccc2)c(Oc2ccc3nnc(Cl)n3n2)c1` [Cpd.4-7, 6-(4-fluoro-biphenyl-2-yloxy)-3-chloro-[1,2,4]triazolo[4,3-b]pyridazine] gave a melting point of 180.7 °C. Also, the EC50 in series [1] fell in the range of 100 to 1000 nM. Further, the EC50 in series [2] was less than 100 nM.
On to `O=C(c1ccccc1)c1ccccc1Oc1ccc2nnc(C(F)(F)F)n2n1` [Cpd.4-8, (2-(3-(trifluoromethyl)-[1,2,4]triazolo[4,3-b]pyridazin-6-yloxy)phenyl)(phenyl)methanone], for which the melting point was found to be 112.1 °C. The compound also gave an EC50 in series [1] of 1000 to 6000 nM. In series [2], this compound had an EC50 of 100 to 1000 nM.
`Fc1ccc(-c2ccccc2Oc2ccc3nnc(Cl)n3n2)cc1` [Cpd.4-10, 6-(4′-fluoro-biphenyl-2-yloxy)-3-chloro-[1,2,4]triazolo[4,3-b]pyridazine] displayed a melting point of 144.4 °C. The compound also yielded an EC50 in series [1] of 100 to 1000 nM. The compound also had an EC50 in series [2] of less than 100 nM.
In turn, `O=C(c1ccccc1)c1ccccc1Oc1ccc2nnc(Cl)n2n1` [Cpd.4-11, (2-(3-chloro-[1,2,4]triazolo[4,3-b]pyridazin-6-yloxy)phenyl)(phenyl)methanone] came in with a melting point of 137.9 °C. The compound also returned an EC50 in series [1] of 1000 to 6000 nM. The EC50 in series [2] lay within 1100 to 6000 nM.
Turning to `FC(F)(F)c1nnc2ccc(Cc3ccccc3-c3ccccc3)nn12` [Cpd.4-12, 6-(biphenyl-2-ylmethyl)-3-(trifluoromethyl)-[1,2,4]triazolo[4,3-b]pyridazine], the melting point worked out at 117.4 °C. For the same compound, the EC50 in series [1] lay in the range of 1000 to 6000 nM. The EC50 in series [2] was in the range of 1100 to 6000 nM.
`Cc1cc(Oc2ccc3nnc(Cl)n3n2)c(-c2ccccc2)cc1C` [Cpd.4-18, 6-(4,5-dimethyl-biphenyl-2-yloxy)-3-chloro-[1,2,4]triazolo[4,3-b]pyridazine] displayed a melting point of 147.5 °C. This compound also had an EC50 in series [1] of less than 100 nM. For the same compound, in series [3], the EC50 is 100 to 1000 nM.
The like results for `CC(C)(C)c1ccc(Oc2ccc3nnc(Cl)n3n2)c(-c2ccccc2)c1` [Cpd.4-19, 6-(5-tert-butyl-biphenyl-2-yloxy)-3-chloro-[1,2,4]triazolo[4,3-b]pyridazine] were, in that order, 199.1 °C, 100 to 1000 nM and 100 to 1000 nM.
As for `CN(C)c1ccc(-c2ccccc2)c(Oc2ccc3nnc(Cl)n3n2)c1` [Cpd.4-45, 3-chloro-6-(4-N,N-dimethylamino-biphenyl-2-yloxy)-[1,2,4]triazolo[4,3-b]pyridazine], the figures for the EC50 in series [1] and in series [3] were less than 100 nM and 100 to 1000 nM, respectively.
`CN(C)c1ccc(Oc2ccc3nnc(Cl)n3n2)c(-c2ccccc2)c1` [Cpd.4-46, 3-chloro-6-(5-dimethylamino-biphenyl-2-yloxy)-[1,2,4]triazolo[4,3-b]pyridazine] registered a melting point of 148 to 149 °C. In series [1], this compound came in with an EC50 of less than 100 nM. This compound also registered an EC50 in series [3] of 100 to 1000 nM.
As for `CCNc1ccc(Oc2ccc3nnc(Cl)n3n2)c(-c2ccccc2)c1` [Cpd.4-54, 3-chloro-6-(5-ethylamino-biphenyl-2-yloxy)-[1,2,4]triazolo[4,3-b]pyridazine], the melting point was in the range of 72 to 77 °C. In series [1], this compound showed an EC50 of 100 to 1000 nM. Further, in series [3], the EC50 lay within 100 to 1000 nM.
Turning to `CCCCNc1ccc(Oc2ccc3nnc(Cl)n3n2)c(-c2ccccc2)c1` [Cpd.4-58, 3-chloro-6-(5-butylamino-biphenyl-2-yloxy)-[1,2,4]triazolo[4,3-b]pyridazine], the melting point lay within 85 to 88 °C. This compound also showed an EC50 in series [1] of 100 to 1000 nM. This compound displayed an EC50 in series [3] of 100 to 1000 nM.
In the case of `CCOC(=O)C1Cc2ccccc2CN1C(=O)c1ccc(SC)s1` (centres unmarked) [SR8278], the pharmacokinetic properties result in series [4] is “poor pharmacokinetic properties”.
`CCOC(=O)N1CCC(CN(Cc2ccc(Cl)cc2)Cc2ccc([N+](=O)[O-])s2)C1` (centres unmarked) [SR9009]: in series [5], the metabolic parameters entry is given as “improve the metabolic parameters”.
Take `CCCCCNC(=O)N1CCC(CN(Cc2ccc(Cl)cc2)Cc2ccc([N+](=O)[O-])s2)C1` (centres unmarked) [SR9011]: in series [5], the metabolic parameters entry was “improve the metabolic parameters”.

Source of the values: patent US9586963B2 (GENFIT, priority 2011, dated 2017).
